The target of series [1] is T1, SynGUN4 (Synechocystis sp. PCC 6803, UniProt P72583).
T1 construct: gene sll0558; full length, residues 1-233; E. coli BL21(DE3)
In words: tryptophan fluorescence quenching. Format: binding.

Series [2] deals with T2, SynGUN4 (Synechocystis sp. PCC 6803, UniProt P72583, R113A).
T2 construct: gene sll0558; full length, residues 1-233; E. coli BL21(DE3)
Nature of the series: tryptophan fluorescence quenching. Format: binding. As to conditions: read-out: dissociation constant. An excerpt: (§1) tryptophan fluorescence quenching on SynGUN4

Series [3] addresses T3, SynGUN4 (Synechocystis sp. PCC 6803, UniProt P72583, A219G).
T3 construct: gene sll0558; full length, residues 1-233; E. coli BL21(DE3)
In words: tryptophan fluorescence quenching. Type of series: binding. The settings on record: read-out: dissociation constant.
Source text: as §1

For series [4], the target named is T4, SynGUN4 (Synechocystis sp. PCC 6803, UniProt P72583, R214A).
T4 construct: gene sll0558; full length, residues 1-233; E. coli BL21(DE3)
In words: tryptophan fluorescence quenching. Format: binding. As to conditions: read-out: dissociation constant.
Source text: as §1

Series [5] has as its target T5, SynGUN4 (Synechocystis sp. PCC 6803, UniProt P72583, L222A).
T5 construct: gene sll0558; full length, residues 1-233; E. coli BL21(DE3)
Nature of the series: tryptophan fluorescence quenching. Format: binding. As to conditions: read-out: dissociation constant.
Source text: as §1

Substrate in series [6]: CC1=C(CCC(=O)O)c2cc3nc(cc4[nH]c(cc4C)cc4[nH]c(cc1n2)cc4C)C(C)=C3CCC(=O)O
Nature of the series: Mg-Deutero formation by fluorescence. Type of series: biochemical, Synechocystis sp. PCC 6803. The settings on record: no SynGUN4, 200 nM ChlH (methods: 0.1 μM ChlH), 20 mM MgCl2, 5 mM ATP, 50 mM MOPS-KOH pH 7.7, 1 mM DTT, 34 °C.

Our source for the Kd and Km values is paper PMC1084334 (PLoS Biology, 2005).

Where two headings read alike, the source gives them in different places.

What is called Km is the concentration of substrate that gives half-maximal velocity.

T1 sequence (P72583 whole entry, the tested form may be a part): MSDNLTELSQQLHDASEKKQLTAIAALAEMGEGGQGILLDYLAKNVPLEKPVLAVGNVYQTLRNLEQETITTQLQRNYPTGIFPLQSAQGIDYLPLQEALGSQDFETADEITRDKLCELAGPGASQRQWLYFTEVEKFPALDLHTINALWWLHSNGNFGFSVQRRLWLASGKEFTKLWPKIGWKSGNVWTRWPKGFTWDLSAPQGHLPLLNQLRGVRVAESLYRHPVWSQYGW
T2 sequence (P72583 whole entry R113A, the tested form may be a part): as the sequence (P72583 whole entry, the tested form may be a part) above, with R113A counted along it
T4 sequence (P72583 whole entry R214A, the tested form may be a part): as the sequence (P72583 whole entry, the tested form may be a part) above, with R214A counted along it
T5 sequence (P72583 whole entry L222A, the tested form may be a part): as the sequence (P72583 whole entry, the tested form may be a part) above, with L222A counted along it
T3 sequence (P72583 whole entry A219G, the tested form may be a part): as the sequence (P72583 whole entry, the tested form may be a part) above, with A219G counted along it

As to `C=CC1=C(C)C2=NC1=Cc1c(C)c(C=C)c3[n]1[Co+][n]1c(c(C)c(CCC(=O)O)c1=CC1=NC(=C3)C(C)=C1CCC(=O)O)=C2` [Co-Proto], at SynGUN4 [1] (50 mM MOPS-KOH pH 7.7, 150 mM NaCl, 1 mM DTT, one-site fit), the Kd was 2.67 ± 0.856 µM.

As for `CC1=C(CCC(=O)O)c2cc3nc(cc4[nH]c(cc4C)cc4[nH]c(cc1n2)cc4C)C(C)=C3CCC(=O)O` [Deutero], the Kd was determined as 7.83 ± 1.99 µM at SynGUN4 [2]; 1.56 ± 0.459 µM at SynGUN4 [3]; 10.9 ± 4.06 µM on SynGUN4 [4]; 6.61 ± 1.02 µM at SynGUN4 [5]; 0.865 ± 0.146 µM at SynGUN4 [1].

B1: Synechocystis Mg-chelatase (ChlH, ChlD, ChlI) (Synechocystis sp. PCC 6803 substr. Kazusa) (protein)
chain: MFTNVKSTIRRVDPEALNGRQLLKVVYVVLESQYQSALSAAVRNINRTNSSLAIQLTGYLIEELRDPENYANFKHDVSEANLFIASLIFIEDLADKVVEAVTPYRDNLDAAIVFPSMPQVMRLNKMGSFSMAQLGQSKSAIAQFMKKRKENSSGAGFQDAMLKLLRTLPTVLKYLPVEKAQDARNFMLSFQYWLGGSQENLENFLLMLTDKYVYPDLGLDKLVNYQEPVVYPDMGIWHPLSMQMFENVKDYLEWYNQRPDISEDLKDPLAPCIGLIMQRTHLVTGDDAHYVGMVQELEAMGARVICVFSGGLDFSKPVNEYFWDKSVNGVEPLPIVDAVVSLTGFALVGGPARQDHPRAIESLKKLNRPYMCALPLVFQTTEEWEASDLGLHPIQVALQIAIPELDGAIEPIILSGRDGSTGRAIALQDRLEAIAQRAMKWANLRKKPKLDKKVAITVFSFPPDKGNVGTAAYLDVFGSIYEVMKGLQGNGYDVQDLPGSAKELMEAVIHDAQAQYNSPELNIAHRMSVEQYERLTPYSVRLEENWGKPPGHLNSDGQNLLIYGKEFGNVFIGVQPTFGYEGDPMRLLFSRSASPHHGFAAYYTYLNHIWKADAVLHFGTHGSLEFMPGKQMGMSGECYPDNLIGTIPNLYYYAANNPSEATIAKRRGYASTISYLTPPAENAGLYKGLQELNELIGSYQTLKDSGRGIQIVNTIMDQARICNLDQDVNLPDINAEEMDQGQRDTIVGSVYRKLMEIESRLLPCGLHVIGQPPSAEEAIATLVNIASLDREDEGIWALPTLIAESIGRNMEEIYRNSDKGILADVELLQDITLATRAAVAALVQEQINADGRVSFVSKLNFFKIGKKAPWVKSLCDSGYPNVNEEKLKPLFEYLEFCLEQVCADNEFGGLLQALEGEYVLPGPGGDPIRNPNVLPTGKNIHALDPQSIPTLAAVQSAKVVVDRLLERQRAENGGNYPETIASVLWGTDNIKTYGESLAQIMWMVGAKPVPDALGRVNKIELVPLEELGRPRIDVVVNCSGVFRDLFINQMNLLDQAVKLAAEADEPLEMNFVRKHALEQAEEMGIGVREAATRIFSNASGSYSSNVNLAVENSSWEDESELQEMYLKRKSFAFNSDNPGMMDQNRDMFERALKTADATFQNLDSSEISLTDVSHYFDSDPTKLISTLRDDGKAPAAYIADTTTANAQVRTLSETVRLDARTKLLNPKWYEGMLSHGYEGVRELSKRLVNTMGWSATAGAVDNWVYEDANSTFIKDEEMCKRLMDLNPNSFRRMVSTLLEVNGRGYWETSDENLERLQELYQEVEDRIEGVE
notes: with Magnesium-chelatase subunit ChlD; Magnesium-chelatase subunit ChlI
B1: the Km in series [6] was 7.46 ± 3.24 µM.
